Laboratory results from US20250179017A1 (GUANGDONG NEWOPP BIOPHARMACEUTICALS CO., LTD., priority 2022, published 2025).

Target: T1, human EP2 (PTGER2) (Homo sapiens, UniProt P43116)
T1 construct: Cayman Chemical (Human EP2 Reporter Assay Kit)
Assay: EP2 antagonist assay (HEK-293 CNG membrane potential cAMP assay / 293T SEAP reporter assay, PGE2-stimulated)
Format: cell-based
Conditions: EP2 antagonist activity; concentration for 50% inhibition of signal compared to DMSO
Description: 1. The HEK-293 CNG (Cyclic Nucleotide Gated) cell line expressing a modified CNG channel that leads to cell membrane depolarization in response to elevated intracellular cAMP levels, which can be measured using a fluorescent membrane potential dye, was engineered to express human EP2 (PTGER2) or EP4 (EP4R). The resulting cell line ACTOne™ PTGER2 or ACTOne™ EP4R as well as the fluorescent membrane potential dye were purchased from eEnzyme (Gaithersburg, MD, US) and used in this assay. Briefly, cells were plated at 1.2×10^4 cells/well in 20 μL DMEM supplemented with 2% Fetal Bovine Serum (FBS, VWR International), 1x Penicillin/Streptomycin (GenClone), 0.2 μg/mL puromycin (InvivoGen) and 50 μg/mL G418 (InvivoGen) on a 384 well plate (Greiner). The next day, cells were dye-loaded with 20 μL/well of 1x Dye-loading solution (eENZYME) following the manufacturer's instruction. After 2 hours of incubation at room temperature (RT) in the dark, a pre-read was made to obtain the background signals using CLARIOstar plate reader (BMG LABTECH, Germany) with the following filter settings: excitation=530/20 nm, emission=590/20 nm. Next, a serial dilution of compound (plus a DMSO control) were added to the plate (5 μL/well) and the reaction was incubated at RT for 15 min before adding 5 μL of PGE2 to every well for a final concentration of 5 nM. All wells were duplicated. The plate was then further incubated at RT for 30 min prior to a final read with the same machine settings. Background-subtracted signals were used to calculate IC50 values.
2. Human EP2 and EP4 Reporter Assay Kits were purchased from Cayman Chemical (Ann Arbor, MI, USA). The assay was performed following the provided User Manual. Briefly, a reverse transfection was performed by seeding 6.0×10^4 of 293T cells (ATCC) to each well of the provided Strip Plate coated with a proprietary transfection complex containing DNA constructs for expressing human EP2 or EP4 and a cAMP response element regulated secreted alkaline phosphatase (SEAP) reporter, in 200 μL DMEM supplemented with 2% FBS and incubated for 20-24 hours at 37° C. with 5% CO2. After the incubation, the culture medium was carefully removed, and the cells were replenished with 150 μL pre-warmed serum-free medium. PGE2 and test compounds were prepared together at 4x the desired final concentration, and 50 μL was added to each assigned well with the final concentration of 13 nM and 2 nM PGE2 for EP2 and EP4 assay, respectively. After 6-8 hours of incubation, 10 μL media from each well was transferred to corresponding well of a new plate, which was then sealed and incubated at 65° C. for 30 min. The plate was then cooled down to RT and 50 μL SEAP substrate was added to each well. Luminescence signal was measured using a CLARIOstar plate reader.
The IC50 value was determined as the concentration for 50% inhibition of signal compared to DMSO (A: IC50 […]; B: IC50 between 100 nM and 1,000 nM; C: IC50≥1,000 nM).

T1 sequence (P43116 whole entry): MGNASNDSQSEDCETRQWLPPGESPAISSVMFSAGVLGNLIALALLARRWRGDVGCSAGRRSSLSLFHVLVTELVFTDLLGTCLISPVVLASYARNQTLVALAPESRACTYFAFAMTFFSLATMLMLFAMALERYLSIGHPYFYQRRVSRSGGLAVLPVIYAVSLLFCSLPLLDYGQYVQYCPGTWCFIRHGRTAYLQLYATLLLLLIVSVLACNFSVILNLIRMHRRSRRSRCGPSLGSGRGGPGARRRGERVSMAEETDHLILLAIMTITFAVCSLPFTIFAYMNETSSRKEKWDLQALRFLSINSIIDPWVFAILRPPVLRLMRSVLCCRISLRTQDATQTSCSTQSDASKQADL

Compound	IC50
C[C@H](NC(=O)c1cc(-c2cc(F)cc(F)c2)cc2ccn(Cc3ccc(-c4ccc(F)cc4)cc3)c12)c1ccc(C(=O)O)cc1 [Example 214, (S)-4-(1-(5-(3,5-difluorophenyl)-1-((4′-fluoro-[1,1′-biphenyl]-4-yl)methyl)-1H-indole-7-carboxamido)ethyl)benzoic acid]	< 100 nM
C[C@H](NC(=O)c1cc(-c2ccc(F)cc2)cc2ccn(Cc3ccc(-c4ccc(F)cc4)cc3)c12)c1ccc(C(=O)O)cc1 [Example 213, (S)-4-(1-(1-((4′-fluoro-[1,1′-biphenyl]-4-yl)methyl)-5-(4-fluorophenyl)-1H-indole-7-carboxamido)ethyl)benzoic acid]	< 100 nM
C[C@@H](NC(=O)c1ccc(-c2cccc(C#N)c2)c2ccn(Cc3ccc(C(F)(F)F)cc3)c12)c1ccc(C(=O)O)cc1 [Example 30, (R)-4-(1-(4-(3-cyanophenyl)-1-(4-(trifluoromethyl)benzyl)-1H-indole-7-carboxamido)ethyl) benzoic acid]	≥ 1000 nM
C[C@H](NC(=O)c1cc(-c2ccccc2)cc2cnn([C@@H](C)c3ccc4ccccc4c3)c12)c1ccc(C(=O)O)cc1 [Example 197, 4-((S)-1-(1-((S)-1-(naphthalen-2-yl)ethyl)-5-phenyl-1H-indazole-7-carboxamido)ethyl)benzoic acid]	100 to 1000 nM
C[C@H](NC(=O)c1cc(-c2ccc(F)c(F)c2)cc2cnn(Cc3ccc4ccccc4c3)c12)c1ccc(C(=O)O)cc1 [Example 219, (S)-4-(1-(5-(3,4-difluorophenyl)-1-(naphthalen-2-ylmethyl)-1H-indazole-7-carboxamido)ethyl)benzoic acid]	< 100 nM
C[C@H](NC(=O)c1cc(-c2ccccc2)cc2ccn(Cc3ccc4ccccc4c3)c12)c1ccc(C(=O)O)cc1 [Example 162, (S)-4-(1-(1-(naphthalen-2-ylmethyl)-5-phenyl-1H-indole-7-carboxamido)ethyl)benzoic acid]	< 100 nM
N#Cc1cccc(-c2cc(C(=O)NC3CC4(C3)CC(C(=O)O)C4)c3c(Sc4ccc(C(F)(F)F)cc4)c[nH]c3c2)c1 (racemic) [Example 114, (±) 6-(6-(3-cyanophenyl)-3-((4-(trifluoromethyl)phenyl)thio)-1H-indole-4-carboxamido)spiro[3.3]heptane-2-carboxylic acid]	< 100 nM
O=C(O)c1ccc(C2(NC(=O)c3ccc(Nc4ccc(F)cc4)c4ccn(Cc5ccc(C(F)(F)F)cc5)c34)CC2)cc1 [Example 64, 4-(1-(4-((4-fluorophenyl)amino)-1-(4-(trifluoromethyl)benzyl)-1H-indole-7-carboxamido)cyclopropyl)benzoic acid]	< 100 nM
O=C(O)c1ccc(C2(NC(=O)c3ccc(-c4ccc(F)cc4)c4ccn(Cc5ccc(C(F)(F)F)cc5)c34)CC2)cc1 [Example 42, 4-(1-(4-(4-fluorophenyl)-1-(4-(trifluoromethyl)benzyl)-1H-indole-7-carboxamido)cyclopropyl)-benzoic acid]	≥ 1000 nM
C[C@H](NC(=O)c1cc(-c2cccc(C#N)c2)cc2ccn(Cc3cccc(C(F)(F)F)c3)c12)c1ccc(C(=O)O)cc1 [Example 127, (S)-4-(1-(5-(3-cyanophenyl)-1-(3-(trifluoromethyl)benzyl)-1H-indole-7-carboxamido)ethyl)benzoic acid]	< 100 nM
C[C@H](NC(=O)c1cc(-c2ccccc2)cc2ccn(Cc3ccc(-c4ccc(F)cc4)cc3)c12)c1ccc(C(=O)O)cc1 [Example 212, (S)-4-(1-(1-((4′-fluoro-[1,1′-biphenyl]-4-yl)methyl)-5-phenyl-1H-indole-7-carboxamido)ethyl)benzoic acid]	< 100 nM
N#Cc1cccc(Nc2ccc(C(=O)NC3(c4ccc(C(=O)O)cc4)CC3)c3c2ccn3Cc2ccc(C(F)(F)F)cc2)c1 [Example 61, 4-(1-(4-((3-cyanophenyl)amino)-1-(4-(trifluoromethyl)benzyl)-1H-indole-7-carboxamido)cyclopropyl)benzoic acid]	100 to 1000 nM
O=C(O)c1ccc(C2(NC(=O)c3ccc(-c4cccc(C(F)(F)F)c4)c4ccn(Cc5ccc(C(F)(F)F)cc5)c34)CC2)cc1 [Example 40, 4-(1-(1-(4-(trifluoromethyl)benzyl)-4-(3-(trifluoromethyl)phenyl)-1H-indole-7-carboxamido)cyclopropyl)benzoic acid]	≥ 1000 nM

Next, values leading:

IC50	Compound
≥ 1000 nM	C[C@@H](NC(=O)c1cc(-c2cc(F)cc(C(F)(F)F)c2)cc2ccn(Cc3ccc(C(F)(F)F)cc3)c12)c1ccc(C(=O)O)cc1 [Example 16, (R)-4-(1-(5-(3-fluoro-5-(trifluoromethyl)phenyl)-1-(4-(trifluoromethyl)benzyl)-1H-indole-7-carboxamido)ethyl)benzoic acid]
< 100 nM	N#Cc1cccc(Nc2ccc(C(=O)NCc3ccc(C(=O)O)cc3)c3c2ccn3Cc2ccc(C(F)(F)F)cc2)c1 [Example 68, 4-((4-((3-cyanophenyl)amino)-1-(4-(trifluoromethyl)benzyl)-1H-indole-7-carboxamido)methyl)benzoic acid]
< 100 nM	O=C(O)c1ccc(CNC(=O)c2cc(-c3ccccc3Cl)cc3ccn(Cc4ccc(C(F)(F)F)cc4)c23)cc1 [Example 90, 4-((5-(2-chlorophenyl)-1-(4-(trifluoromethyl)benzyl)-1H-indole-7-carboxamido)methyl)benzoic acid]
< 100 nM	O=C(O)c1ccc(CNC(=O)c2cc(-c3ccccc3)cc3ccn(Cc4ccc(-c5ccc(F)cc5)cc4)c23)cc1 [Example 208, 4-((1-((4′-fluoro-[1,1′-biphenyl]-4-yl)methyl)-5-phenyl-1H-indole-7-carboxamido)methyl)benzoic acid]
≥ 1000 nM	CN1CCN(c2ccc(C(=O)NCc3ccc(C(=O)O)cc3)c3c2ccn3Cc2ccc(C(F)(F)F)cc2)CC1 [Example 59, 4-((4-(4-methylpiperazin-1-yl)-1-(4-(trifluoromethyl)benzyl)-1H-indole-7-carboxamido)methyl)benzoic acid]
< 100 nM	O=C(O)c1ccc(CNC(=O)c2cc(-c3ccc(F)c(Cl)c3)cc3ccn(Cc4ccc(C(F)(F)F)cc4)c23)cc1 [Example 94, 4-((5-(3-chloro-4-fluorophenyl)-1-(4-(trifluoromethyl)benzyl)-1H-indole-7-carboxamido)methyl)benzoic]
< 100 nM	O=C(O)c1ccc(CNC(=O)c2cc(-c3ccc(F)c(F)c3)cc3cnn(Cc4ccc(-c5ccccc5)cc4)c23)cc1 [Example 193, 4-((1-([1,1′-biphenyl]-4-ylmethyl)-5-(3,4-difluorophenyl)-1H-indazole-7-carboxamido)methyl)benzoic acid]
≥ 1000 nM	O=C(O)c1ccc(C2(NC(=O)c3cc(-c4cccc(C(F)(F)F)c4)cc4ccn(Cc5ccc(C(F)(F)F)cc5)c34)CC2)cc1 [Example 20, 4-(1-(1-(4-(trifluoromethyl)benzyl)-5-(3-(trifluoromethyl)phenyl)-1H-indole-7-carboxamido)cyclopropyl)benzoic acid]
< 100 nM	O=C(O)c1ccc(CNC(=O)c2cc(-c3ccc(F)c(F)c3)cc3ccn(Cc4ccc(C(F)(F)F)cc4)c23)cc1 [Example 8, 4-((5-(3,4-difluorophenyl)-1-(4-(trifluoromethyl)benzyl)-1H-indole-7-carboxamido)methyl)benzoic acid]
≥ 1000 nM	O=C(O)c1ccc(CNC(=O)c2ccc(-c3ccc(F)cc3)c3ccn(Cc4ccc(C(F)(F)F)cc4)c23)cc1 [Example 25, 4-((4-(4-fluorophenyl)-1-(4-(trifluoromethyl)benzyl)-1H-indole-7-carboxamido)methyl)benzoic acid]
